Results: patent US8039670B2, “Analogs of alpha galactosyceramide and uses thereof” (Ludwig Institute for Cancer Research, priority 2005, dated 2011)

Assays:
human DC = assay: DC maturation in co-culture of human DC and iNKT cells (flow cytometry CD83, CD86, CD38); format: cell-based
Method: (§1) Different analogs of α-GalCer as indicated or LPS were added to co-cultures of human DC and iNKT cells. (A) Maturation of the DC was assessed after 40 h, gating on CD11c positive cells. Histograms indicate the CD83 and CD86 profiles of DC from different treatments; the percentages indicate the percentage of CD83hi mature DC and the numbers in parenthesis, the mean fluorescence intensity of the population contained within the labeled gate. DC and iNKT cells were co-cultured in the presence of different analogs of α-GalCer for 24 hours. Supernatants were analyzed using ELISA for the presence of (B) IL-12p40 released by the DC and (C) IFN-γ from the iNKT cells. […] Cells were co-cultured in the presence of the indicated concentration of analog and the percentages of DC with increased CD83/CD80 are shown. […] Viability of α-GalCer or analog-pulsed DC was assessed after 40 h co-culture in the presence of iNKT cells by flow cytometry. Cells were stained with propidium iodide and the percentage of live CD11c gated cells remaining in the culture are shown.
(§2) Human monocyte-derived DC were pulsed with 150 ng of different inositol analogs and co-cultured with iNKT cells for 24 h. […] Numbers indicate the mean fluorescence intensity of the histogram gated on CD11c^+ cells.
Immature human DC were cultured in the presence of a human iNKT cell clone with or without analogs or vehicle at different concentrations.
To compare the functions of high affinity α-GalCer, intermediate affinity threitolceramide with the known, low affinity analog OCH, the three compounds were titrated onto DC and used to present to iNKT cells. Maturation of DC and DC viability were examined after 48 h.

[1] = test system: IL-12p40 released by the DC; assay: IL-12p40 ELISA of supernatants of DC/iNKT co-cultures; format: cell-based, human; settings: DC/iNKT co-culture, 24 hours
Method: as §1, §2
Release of IL-12p40 (and bioactive p75) by DC is a marker of activation and is thought to play an important role in regulating the profile of the immune response generated in response to those DC (Trinchieri et al, Nat Rev Immunol, 2003, 3; 133-46).

[2] = test system: IFN-γ from the iNKT cells; assay: IFN-γ ELISA of supernatants of DC/iNKT co-cultures; format: cell-based, human; settings: analogs presented by DC
Method: as §1, §2

IL-4 and IFN-γ = assay: Serum cytokines after i.v. injection into mice (ELISA); format: in vivo, C57BL/6 mice
Method: C57BL/6 or iNKT^−/− mice were injected i.v. with 1 μg of vehicle, α-GalCer, analog or 25 μg MPL. Twenty hours after injection splenocytes were stained with antibodies against CD11c, B220 and CD86 and analyzed by flow cytometry. (A) Maturation was assessed by the upregulation of CD86 at the cell surface, gating on DC (CD11c^+). Mean fluorescence intensity for each histogram is indicated. These are representative profiles of two independent experiments. 2, 6 and 18-24 h after injection as described, the mice were bled and the serum tested with ELISA for the presence of (B) IL-4 and (C) IFN-γ released in response to the analog.
Stimulation of iNKT cells by α-GalCer in the context of CD1d rapidly induces release of significant levels of a number of cytokines including IFN-γ and IL-4 (Burdin, Brossay et al, J Immunol, 1998, 161; 3271-81), IL-3 and GM-CSF (Leite-de-Moraes, Lisbonne et al, Eur J Immunol, 2002, 32; 1897-904) with other downstream cell-types including DC (Kitamura, Iwakabe et al, J Exp Med, 1999, 189; 1121-8) and NK cells (Carnaud, Lee et al, J Immunol, 1999, 163; 4647-50) being activated.

[3] = test system: antigen-specific CD8^+ T cells; assay: OVA-specific CD8+ T cells after co-injection with OVA ([…]-Kb tetramer); format: in vivo, C57BL/6 mice; settings: 1 μg with 800 μg OVA, 6 days
Method: (§3) (A) C57BL/6 mice were co-injected with 1 μg α-GalCer or analog and 800 μg OVA. 6 days later blood samples taken from the tail vein were stained directly ex vivo with fluorescent […]-K^b tetramers and an anti-CD8 antibody and analyzed by flow cytometry. Data are shown as tetramer positive cells as a percentage of CD8^+ cells. (B) 7 days after injection, the mice were challenged in a prophylactic setting with 1×10^6 E.G7-OVA tumour cells s.c. and the size of the tumour monitored over subsequent days.
Previously we, and others have shown that co-injection of model antigens such as OVA (Silk, Hermans et al, J Clin Invest, 2004, 114; 1800-11, Fujii, Shimizu et al, J Exp Med, 2003, 198; 267-79, Hermans, Silk et al, J Immunol, 2003, 171; 5140-7) and β-galactosidase (Silk, Hermans et al, J Clin Invest, 2004, 114; 1800-11) together with α-GalCer induces enhanced CD8^+, CD4^+ T cell and B cell responses. These were effective for therapy against tumour cells expressing the target antigen. The various analogs were co-injected with OVA into wild type mice and 6 days later the blood examined for the presence of antigen-specific CD8^+ T cells using fluorescent K^b-[…] tetramers.

E.G7-OVA tumour cells = assay: Prophylactic challenge with E.G7-OVA tumour cells after co-injection with OVA; format: in vivo, C57BL/6 mice; settings: injected with OVA, challenge 7 days later with 1×10^6 E.G7-OVA s.c.
Method: as §3

[4] = test system: human monocyte derived DCs; assay: Example A: DC maturation markers in human monocyte derived DC with NKT cells (FACS); format: cell-based; settings: 100 ng/ml, 36 hours, 10 DC/NKT cell
Method: The methodology of Salio, et al., J. Immunol., 167:1188-1197 (2001), incorporated by reference, was followed. In brief, 2×105 human monocyte derived DCs were pulsed with 100 ng/ml of one of Compounds 2, 3, αGal-Cer, or vehicle solution, as a control. For DC pulsing, each of arabinitol ceramide (Compound 1), threitol ceramide (Compound 3), glycerol ceramide (Compound 2) and αGal-Cer was solubilized in vehicle solution (0.5% Tween 20/PBS), and added to the medium of the DC cultures. […] After 36 hours, supernatant was removed from cultures and analyzed for the presence of known DC maturation markers CD83, CD80, CD86, CD25, and CD38, all of which were analyzed via FACS, using well known methods.

p40 form of IL-12 = assay: Example A: IL-12 p40 ELISA as indication of DC stimulation; format: cell-based, human
OVA specific response = assay: Example C: OVA specific CTL response in mice injected with OVA and compound (tetramer); format: in vivo; settings: 400 μg OVA with 1 μg compound i.v.
Method: Subject animals, five mice per group, received an intravenous injection of 400 μg of ovalbumin (OVA) together with 1 μg of one of the compounds of the invention under examination or an equivalent volume of PBS diluted vehicle solution. A subset of mice were injected with 25 μg of the molecule MPL (Sigma-Aldrich; extracted from Salmonella Minnesota) solubilized in PBS.
Following the injections, blood was obtained from lateral tail veins, and PBLs were isolated, using standard methods. The PBLs were then stained, directly, […], with tetrameric, H-2 Kb/OVA 257-264, H-21 Kb complexes, following Palmowski, et al., J. Immunol., 168:4391-4398 (2002), incorporated by reference. The tetramers were prepared in accordance with Whilan, et al., J. Immunol., 163:4342-4348 (1999), incorporated by reference.

[5] = test system: OVA specific IgG antibodies; assay: Example D: OVA specific IgG antibodies in serum of immunized mice (ELISA); format: in vivo; settings: ten days following immunization
Method: OVA protein coated ELISA plates, were prepared, using well known methods. Then, blood samples were taken, ten days following immunization, and serum was prepared.
The samples were taken from mice that had been immunized with OVA only, OVA and Compound 1, arabinitol ceramide, OVA and αGal-Cer, or OVA and Compound 2, glycerol ceramide. Additionally, mice were immunized with each of these schedules with MPL added. Serum IgG titers were measured by adding serial dilutions of mouse serum were detected using horseradish peroxidase (HRP) conjugated α-mouse IgG.

[6] = test system: DCs obtained from the spleen; assay: Example E: phenotyping of spleen DCs after tail vein injection (CD86); format: in vivo, mice; settings: 1 μg tail vein, 24 h
Method: In brief, in each experiment, 1 μg of one of a selection of compounds of the invention was injected into the tail vein of subject mice. 24 h later spleen tissue was removed from the animals and gently teased through gauze into complete medium, supplemented with 5 mM of EDTA. Cells were enriched for CD11c by anti-CD11, magnetic beads using published techniques. Once enriched, they were assayed for maturation markers using antibody staining and flow cytometry. Non-specific staining was addressed by using an antibody specific for the Fc-RIII/II receptor.

[7] = molecular target: T1, human invariant Vα24^+/Vβ11^+ TCR binding to hCD1d-lipid complex (Homo sapiens, UniProt P15813); assay: Surface plasmon resonance (Biacore) of soluble iNKT TCR binding to hCD1d monomers loaded with analogs; settings: for Kd: equilibrium binding, read-out: Kd of the TCR binding to the monomer; for koff: kinetic measurement, read-out: rate of dissociation (Koff) between the TCR and the monomer
T1 construct: soluble human CD1d molecules; made in house
Method: Affinity and kinetics of iNKT TCR binding to hCD1d complexed with α-GalCer or OCH. Increasing concentrations from 0.4 μM to 194 μM (two-fold dilution) of iNKT TCR were injected for 5 seconds over the indicated hCD1d-GSL complexes. The binding responses of 5 concentrations are shown superimposed. The panels on the right show binding response at equilibrium.
The affinities of a soluble NKT cell TCR for human CD1d molecules refolded with different analogs of α-GalCer were measured. Equilibrium binding and kinetic measurements respectively were made for α-GalCer (A and B), threitolceramide (C and D), 4S-threitolceramide (E and F), 4R-threitolceramide (G and H). The Kd values (μM) were calculated from equilibrium binding. The Kon values shown were calculated from Koff and Kd.
We then assessed whether the length of the acyl and sphingosine chains could affect the affinity of iNKT TCR binding to glycolipid-CD1d complex. We refolded Vα24 and Vβ11 chains of the iNKT TCR as previously described (Gadola, Koch et al, J Exp Med, 2006, 203; 699-710) and used the purified and refolded iNKT TCR in surface plasmon resonance studies against immobilized biotinylated CD1d monomers loaded with either α-GalCer or OCH.
To characterize the affinity of analogs of α-GalCer, biotinylated hCD1d monomers were generated using previously described protocols (Karadimitris, Gadola et al, Proc Natl Acad Sci USA, 2001, 98; 3294-8) bound to the different analogs. Surface plasmon resonance (Biacore) analysis was performed using a soluble disulphide-linked human invariant Vα24^+/Vβ11^+ TCR (Gadola, Koch et al, J Exp Med, 2006, 203; 699-710) to measure the equilibrium dissociation constants (Kd) of binding of the TCR to different monomers (FIG. 3).

iNKT cell clone = assay: Cytokine release from iNKT cell clone stimulated with analog-pulsed C1R-human CD1d cells; format: cell-based; settings: 24 h, titration
Method: FIG. 9 Inositol-based α-GalCer derivatives are functional in vitro. Human monocyte-derived DC were pulsed with 150 ng of different inositol analogs and co-cultured with iNKT cells for 24 h. […] Numbers indicate the mean fluorescence intensity of the histogram gated on CD11c^+ cells. 6-Deoxy and 6-Sulfono-myo-inositolceramide induce significant (B) IL-12p40 and (C) IFN-γ production by DC and iNKT cells respectively in the supernatants of co-cultured DC and iNKT cells. […] Release of (D) IFN-g and (E) IL-4 from iNKT cells after 24 h in culture with C1R-human CD1d cells pulsed with α-GalCer, 6-Deoxy- or 6-Sulfono-myo-inositolceramide.
The three inositol compounds were titrated on C1R cells expressing human CD1d and used to stimulate an iNKT cell clone.

## CCCCCCCCCCCCCCCCCCCCCCCCCC(=O)N[C@@H](COCC(O)[C@@H](O)[C@@H](O)CO)[C@H](O)C(O)CCCCCCCCCCCCCC (stereo partly drawn) [Compound 1, Arabinitol Ceramide]
Human DC; human DC with iNKT cell clone, 24 hours
  DC maturation (upregulation of CD83, CD86 and CD38): only weakly functional
[1]
  IL-12p40 released: little IL-12p40 was detected
[2]
  IFN-γ released by the iNKT cells: no detectable IFNγ
IL-4 and IFN-γ; compared with OCH
  skewing of cytokine response to Th2: Neither compound showed a skewed Th2 cytokine response
IL-4 and IFN-γ; equivalent doses
  potency of cytokine induction compared with α-GalCer: less potent than α-GalCer at equivalent doses
IL-4 and IFN-γ; wild type mice, 1 μg i.v., 2, 6 and 18-24 h
  cytokine release in serum (IL-4, IFN-γ, IL-12p40/70): detected in the serum with a similar time-course to that seen with α-GalCer
[3]
  antigen-specific CD8+ T cell response: induced a significant CD8^+ T cell response after 6 days, although less potently than α-GalCer
E.G7-OVA tumour cells
  tumour growth: little or no tumour growth
[4]
  induction of DC maturation markers (CD83, CD80, CD86, CD25, CD38): DC maturation markers are induced
p40 form of IL-12
  IL-12 potency, fold less potent than Compound 3: approximately 1000 fold
OVA specific response
  OVA specific response: enhancement of the OVA specific response
[5]
  OVA specific antibody response, adjuvant effect compared with MPL: more effective as adjuvants than MPL
[6]
  induction of CD86 on spleen DC in vivo: induced CD86 in vivo similarly

## CCCCCCCCCCCCCCCCCCCCCCCCCC(=O)N[C@@H](COC[C@H](O)[C@@H](O)[C@@H](O)c1ccccc1)[C@H](O)[C@H](O)CCCCCCCCCCCCCC [Compound 14, 4-(S)-Phenyl Threitol Ceramide]
[7]
  Kd: 3.84 µM
  koff: 0.65 s⁻¹

## CCCCCCCCCCCCCCCCCCCCCCCCCC(=O)N[C@@H](COC[C@H](O)[C@@H](O)[C@H](O)c1ccccc1)[C@H](O)[C@H](O)CCCCCCCCCCCCCC [Compound 15, 4-(R)-Phenyl Threitol Ceramide]
[7]
  Kd: 4.25 µM
  koff: 0.506 s⁻¹

## D-myo-Inositol Ceramide Salt [Compound 13]
iNKT cell clone
  IFN-γ release from iNKT cells: little or no IFN-γ release
  IL-4 release from iNKT cells: detectable IL-4 was produced when higher concentrations of the compound were used

## D-myo-Inositol Ceramide [Compound 12]
iNKT cell clone
  IFN-γ release from iNKT cells: significant levels of both cytokines
  IL-4 release from iNKT cells: significant levels of both cytokines

## Inositol Ceramide [Compound 10]
Human DC; data not shown
  DC maturation and cytokine production from iNKT cells (first test): induced detectable DC maturation and cytokine production from iNKT cells
iNKT cell clone
  IFN-γ release from iNKT cells: little or no IFN-γ and IL-4
  IL-4 release from iNKT cells: little or no IFN-γ and IL-4
